# Results: article PMC6832920, “Synthesis, Docking Studies, and In Vitro Evaluation of Some Novel Thienopyridines and Fused Thienopyridine–Quinolines as Antibacterial Agents and DNA Gyrase Inhibitors” (Molecules, 2019)
# What was measured:
# Escherichia coli 8739 [1] = assay: MIC determination by dilution procedure; assay type: cell-based; settings: E. coli 8739, dilutions 125-1.95 μg/mL, read-out: minimum inhibitory concentration (MIC)
# [2] = test system: Pseudomonas aeruginosa 27853; assay: agar disc-diffusion antibacterial assay; assay type: cell-based; settings: P. aeruginosa 27853, disc loaded with 100 μg, 37 °C, 24 h, read-out: diameter of inhibition zone
# Method: (§1) The clinical control strains of Gram-negative bacteria (Escherichia coli 8739, Salmonella typhimurium 14028, Pseudomonas aeruginosa 27853) and Gram-positive bacteria (Bacillus subtilis 6633, Bacillus cereus 33018, Staphylococcus aureus 25923), were obtained from microbial inoculums by subculturing microorganisms into nutrient broth (NB) at 37 °C for 18 h, and were adjusted to 0.125 A° at 625 nm (equivalent to a McFarland 0.5) in 2-fold NB. A 100 μL measure of NB containing each test microorganism was added to the sterile Petri dishes. Antibacterial testing was carried out on all compounds (3a,b–14) using the agar disc-diffusion method [40]. Sterile nutrients were inoculated with 100 μL cell suspension of the chosen test microorganism and poured into Petri dishes (20 cm diameter). Filter paper discs (Whatman, No.3, diameter 5 mm) were loaded with 10 μL containing 100 μg of the tested compounds, as well as the standard drug. Composite compound disks were placed on the surface of inoculated agar plates and kept at low temperatures before incubation in order to support the swelling and diffusion of the microbial growth. The plates were incubated at 37 °C in the incubator. Experiments were performed in duplicate and the diameters of inhibition zones were measured after 24 h. A diameter of inhibition zone (DIZ) assay was performed to evaluate the antimicrobial potential of the compounds against the tested organisms compared with reference antibiotics.
# Bacillus subtilis 6633 [3] = assay: MIC determination by dilution procedure; assay type: cell-based; settings: B. subtilis 6633, dilutions 125-1.95 μg/mL, read-out: minimum inhibitory concentration (MIC)
# Method: (§2) A 100 μL measure of NB containing each test microorganism was added to the sterile Petri dishes. Antibacterial testing was carried out on all compounds (3a,b–14) using the agar disc-diffusion method [40]. Sterile nutrients were inoculated with 100 μL cell suspension of the chosen test microorganism and poured into Petri dishes (20 cm diameter). Filter paper discs (Whatman, No.3, diameter 5 mm) were loaded with 10 μL containing 100 μg of the tested compounds, as well as the standard drug. Composite compound disks were placed on the surface of inoculated agar plates and kept at low temperatures before incubation in order to support the swelling and diffusion of the microbial growth. The plates were incubated at 37 °C in the incubator. Experiments were performed in duplicate and the diameters of inhibition zones were measured after 24 h. A diameter of inhibition zone (DIZ) assay was performed to evaluate the antimicrobial potential of the compounds against the tested organisms compared with reference antibiotics.
# [4] = test system: Pseudomonas aeruginosa 27853; assay: MIC determination by dilution procedure; assay type: cell-based; settings: Pseudomonas aeruginosa, 27853, P. aeruginosa 27853; dilutions 125-1.95 μg/mL; read-out: minimum inhibitory concentration (MIC)
# Bacillus cereus 33018 [5] = assay: MIC determination by dilution procedure; assay type: cell-based; settings: B. cereus 33018, dilutions 125-1.95 μg/mL, read-out: minimum inhibitory concentration (MIC)
# Method: as §2
# [6] = test system: Salmonella typhimurium 14028; assay: MIC determination by dilution procedure; assay type: cell-based; settings: Salmonella enterica; S. typhimurium 14028; dilutions 125-1.95 μg/mL; read-out: minimum inhibitory concentration (MIC)
# Method: (§3) The clinical control strains of Gram-negative bacteria (Escherichia coli 8739, Salmonella typhimurium 14028, Pseudomonas aeruginosa 27853) and Gram-positive bacteria (Bacillus subtilis 6633, Bacillus cereus 33018, Staphylococcus aureus 25923), were obtained from microbial inoculums by subculturing microorganisms into nutrient broth (NB) at 37 °C for 18 h, and were adjusted to 0.125 A° at 625 nm (equivalent to a McFarland 0.5) in 2-fold NB. A 100 μL measure of NB containing each test microorganism was added to the sterile Petri dishes. Antibacterial testing was carried out on all compounds (3a,b–14) using the agar disc-diffusion method [40]. Sterile nutrients were inoculated with 100 μL cell suspension of the chosen test microorganism and poured into Petri dishes (20 cm diameter). Filter paper discs (Whatman, No.3, diameter 5 mm) were loaded with 10 μL containing 100 μg of the tested compounds, as well as the standard drug. Composite compound disks were placed on the surface of inoculated agar plates and kept at low temperatures before incubation in order to support the swelling and diffusion of the microbial growth. The plates were incubated at 37 °C in the incubator. Experiments were performed in duplicate and the diameters of inhibition zones were measured after 24 h.
# [7] = test system: Salmonella typhimurium 14028; assay: agar disc-diffusion antibacterial assay; assay type: cell-based; settings: Salmonella enterica; S. typhimurium 14028; disc loaded with 100 μg; 37 °C, 24 h; read-out: diameter of inhibition zone
# Method: as §3
# [8] = test system: Staphylococcus aureus 25923; assay: MIC determination by dilution procedure; assay type: cell-based; settings: Staphylococcus aureus, 25923, S. aureus 25923; dilutions 125-1.95 μg/mL; read-out: minimum inhibitory concentration (MIC)
# Method: as §2
# Escherichia coli 8739 [9] = assay: agar disc-diffusion antibacterial assay; assay type: cell-based; settings: E. coli 8739, disc loaded with 100 μg, 37 °C, 24 h, read-out: diameter of inhibition zone
# Method: as §1
# [10] = test system: Staphylococcus aureus 25923; assay: agar disc-diffusion antibacterial assay; assay type: cell-based; settings: S. aureus 25923, disc loaded with 100 μg, 37 °C, 24 h, read-out: diameter of inhibition zone
# Method: as §1
# Bacillus subtilis 6633 [11] = assay: agar disc-diffusion antibacterial assay; assay type: cell-based; settings: B. subtilis 6633, disc loaded with 100 μg, 37 °C, 24 h, read-out: diameter of inhibition zone
# Method: as §2
# Bacillus cereus 33018 [12] = assay: agar disc-diffusion antibacterial assay; assay type: cell-based; settings: B. cereus 33018, disc loaded with 100 μg, 37 °C, 24 h, read-out: diameter of inhibition zone
# Method: as §2
# DNA gyrase from E. coli = target: T1, DNA gyrase from E. coli (Escherichia coli, UniProt P0AES6); assay: Escherichia coli DNA gyrase supercoiling inhibition assay; assay type: biochemical
# T1 construct: purchased TopoGEN
# [13] = test system: methicillin-resistant Staphylococcus aureus (MRSA); assay: inhibition zones against MRSA (disc diffusion); assay type: cell-based
Structure (SMILES),MIC (Escherichia coli 8739 [1]),zone of inhibition at 100 µg/disc [2],MIC (Bacillus subtilis 6633 [3]),MIC [4],MIC (Bacillus cereus 33018 [5]),MIC [6],zone of inhibition at 100 µg/disc [7],MIC [8],zone of inhibition at 100 µg/disc (Escherichia coli 8739 [9]),zone of inhibition at 100 µg/disc [10],zone of inhibition at 100 µg/disc (Bacillus subtilis 6633 [11]),zone of inhibition at 100 µg/disc (Bacillus cereus 33018 [12]),IC50 (DNA gyrase from E. coli),melting point,zone of inhibition against MRSA [13]
"COc1ccc(-c2cc(-c3ccco3)nc3sc(C(N)=O)c(N)c23)cc1 [Compound 3a, 3-Amino-6-(furan-2-yl)-4-(4-methoxyphenyl)thieno[2,3-b]pyridine-2-carboxamide]",15.6 µg/mL,15 mm,31.2 µg/mL,15.6 µg/mL,31.2 µg/mL,15.6 µg/mL,15 mm,31.2 µg/mL,18 mm,12 mm,10 mm,13 mm,2.26 ± 0.19 µM,–,–
"NC(=O)c1sc2nc(-c3ccco3)cc(-c3cccs3)c2c1N [Compound 3b, 3-Amino-6-(furan-2-yl)-4-(thiophen-2-yl)thieno[2,3-b]pyridine-2-carboxamide]",15.6 µg/mL,13 mm,31.2 µg/mL,31.2 µg/mL,15.6 µg/mL,15.6 µg/mL,18 mm,31.2 µg/mL,19 mm,13 mm,12 mm,18 mm,4.5 ± 0.32 µM,253 °C,–
"COc1ccc(-c2cc(-c3ccco3)nc3sc(C(N)=O)c(N=C4CCCCC4)c23)cc1 [Compound 4a, 3-(Cyclohexylideneamino)-6-(furan-2-yl)-4-(4-methoxyphenyl)thieno[2,3-b]pyridine-2-carboxamide]",15.6 µg/mL,13 mm,15.6 µg/mL,31.2 µg/mL,15.6 µg/mL,15.6 µg/mL,15 mm,15.6 µg/mL,18 mm,18 mm,15 mm,16 mm,3.69 ± 0.15 µM,–,13 mm
"Nc1c2c(nc3c1sc1nc(-c4ccco4)cc(-c4cccs4)c13)CCCC2 [Compound 5b, 2-(Furan-2-yl)-4-(thiophen-2-yl)-6,7,8,9-tetrahydropyrido[3′,2′:4,5]thieno[3,2-b]quinolin-10-amine]",15.6 µg/mL,14 mm,31.2 µg/mL,15.6 µg/mL,15.6 µg/mL,15.6 µg/mL,17 mm,31.2 µg/mL,15 mm,13 mm,12 mm,16 mm,16.7 ± 0.88 µM,248 °C,–
"COc1ccc(-c2cc(-c3ccco3)nc3sc4c(NC(=O)CCl)c5c(nc4c23)CCCC5)cc1 [Compound 6a, 2-Chloro-N-(2-(furan-2-yl)-4-(4-methoxyphenyl)-6,7,8,9-tetrahydropyrido[3′,2′:4,5]thieno[3,2-b]quinolin-10-yl)acetamide]",31.2 µg/mL,13 mm,31.2 µg/mL,31.2 µg/mL,31.2 µg/mL,–,–,31.2 µg/mL,13 mm,12 mm,10 mm,13 mm,13.7 ± 0.65 µM,342 to 343 °C,–
"O=C(CCl)Nc1c2c(nc3c1sc1nc(-c4ccco4)cc(-c4cccs4)c13)CCCC2 [Compound 6b, 2-Chloro-N-(2-(furan-2-yl)-4-(thiophen-2-yl)-6,7,8,9-tetrahydropyrido[3′,2′:4,5]thieno[3,2-b]quinolin-10-yl)acetamide]",15.6 µg/mL,12 mm,15.6 µg/mL,31.2 µg/mL,15.6 µg/mL,31.2 µg/mL,12 mm,–,16 mm,–,15 mm,15 mm,5.95 ± 0.34 µM,338 °C,–
"COc1ccc(-c2cc(-c3ccco3)nc3sc4c(N=Cc5ccc(N(C)C)cc5)c5c(nc4c23)CCCC5)cc1 [Compound 12a, 4-(((2-(furan-2-yl)-4-(4-methoxyphenyl)-6,7,8,9-tetrahydropyrido[3′,2′:4,5]thieno[3,2-b]quinolin-10-yl)imino)methyl)-N,N-dimethylaniline]",31.2 µg/mL,9 mm,31.2 µg/mL,62.5 µg/mL,31.2 µg/mL,62.5 µg/mL,8 mm,31.2 µg/mL,11 mm,10 mm,13 mm,11 mm,–,149 °C,–
"CC(=O)CC(=O)Nc1c2c(nc3c1sc1nc(-c4ccco4)cc(-c4cccs4)c13)CCCC2 [Compound 13, N-(2-(furan-2-yl)-4-(thiophen-2-yl)-6,7,8,9-tetrahydropyrido[3′,2′:4,5]thieno[3,2-b]quinolin-10-yl)-3-oxobutanamide]",62.5 µg/mL,11 mm,15.6 µg/mL,31.2 µg/mL,15.6 µg/mL,62.5 µg/mL,7 mm,31.2 µg/mL,8 mm,12 mm,15 mm,16 mm,–,217 to 218 °C,–
"CC1=NN=C(Nc2c3c(nc4c2sc2nc(-c5ccco5)cc(-c5cccs5)c24)CCCC3)C1 [Compound 14, 2-(furan-2-yl)-N-(5-methyl-4H-pyrazol-3-yl) -4-(thiophen-2-yl)-6,7,8,9-tetrahydropyrido[3′,2′:4,5]thieno[3,2-b]quinolin-10-amine]",15.6 µg/mL,10 mm,15.6 µg/mL,31.2 µg/mL,15.6 µg/mL,31.2 µg/mL,12 mm,31.2 µg/mL,15 mm,13 mm,16 mm,17 mm,11.7 ± 0.93 µM,274 °C,–
"CNC(C)C1CCC(N)C(OC2C(N)CC(N)C(OC3OCC(C)(O)C(NC)C3O)C2O)O1 (stereo not drawn) [Gentamicin, gentamicin, reference compound]",–,–,–,–,–,–,–,–,–,–,–,–,–,–,15 mm
